#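 In this assay, cells in 96-well plates receive the compound at five concentrations for 48 hours. Endpoints are linearly interpolated between the surrounding concentrations. At the GI50, growth is halved. At the TGI there is no net growth.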
# Legend:
# Test in all cases: growth of human tumour cells (NCI), 48 h
# 786-0 renal = test system: 786-0 renal
# A549 NSCLC = test system: A549 NSCLC
# ACHN renal = test system: ACHN renal
# BT-549 breast = test system: BT-549 breast
# CAKI-1 renal = test system: CAKI-1 renal
# CCRF-CEM leukemia = test system: CCRF-CEM leukemia
# COLO 205 colon = test system: COLO 205 colon
# DU-145 prostate = test system: DU-145 prostate
# EKVX NSCLC = test system: EKVX NSCLC
# HCC-2998 colon = test system: HCC-2998 colon
# HCT-116 colon = test system: HCT-116 colon
# HCT-15 colon = test system: HCT-15 colon
# HL-60(TB) leukemia = test system: HL-60(TB) leukemia
# HOP-62 NSCLC = test system: HOP-62 NSCLC
# HOP-92 NSCLC = test system: HOP-92 NSCLC
# HS 578T breast = test system: HS 578T breast
# HT29 colon = test system: HT29 colon
# IGROV1 ovarian = test system: IGROV1 ovarian
# K-562 leukemia = test system: K-562 leukemia
# KM12 colon = test system: KM12 colon
# LOX IMVI melanoma = test system: LOX IMVI melanoma
# M14 melanoma = test system: M14 melanoma
# MALME-3M melanoma = test system: MALME-3M melanoma
# MCF7 breast = test system: MCF7 breast
# MDA-MB-231 breast = test system: MDA-MB-231 breast
# MDA-MB-435 = test system: MDA-MB-435
# MOLT-4 leukemia = test system: MOLT-4 leukemia
# NCI-H226 lung = test system: NCI-H226 lung
# NCI-H23 lung = test system: NCI-H23 lung
# NCI-H460 lung = test system: NCI-H460 lung
# NCI-H522 lung = test system: NCI-H522 lung
# NCI/ADR-RES ovarian = test system: NCI/ADR-RES ovarian
# OVCAR-4 ovarian = test system: OVCAR-4 ovarian
# OVCAR-5 ovarian = test system: OVCAR-5 ovarian
# OVCAR-8 ovarian = test system: OVCAR-8 ovarian
# PC-3 prostate = test system: PC-3 prostate
# RPMI-8226 leukemia = test system: RPMI-8226 leukemia
# RXF 393 renal = test system: RXF 393 renal
# SF-268 CNS = test system: SF-268 CNS
# SF-295 CNS = test system: SF-295 CNS
# SF-539 CNS = test system: SF-539 CNS
# SK-MEL-2 melanoma = test system: SK-MEL-2 melanoma
# SK-MEL-28 melanoma = test system: SK-MEL-28 melanoma
# SK-MEL-5 melanoma = test system: SK-MEL-5 melanoma
# SK-OV-3 ovarian = test system: SK-OV-3 ovarian
# SN12C renal = test system: SN12C renal
# SNB-19 CNS = test system: SNB-19 CNS
# SNB-75 CNS = test system: SNB-75 CNS
# SR leukemia = test system: SR leukemia
# SW-620 colon = test system: SW-620 colon
# T-47D breast = test system: T-47D breast
# TK-10 renal = test system: TK-10 renal
# U251 CNS = test system: U251 CNS
# UACC-257 melanoma = test system: UACC-257 melanoma
# UACC-62 melanoma = test system: UACC-62 melanoma
# UO-31 renal = test system: UO-31 renal
smiles,measurement,setting,value
CS(=O)(=O)Nc1cc(-c2ccc3ncc(C#N)c(NCc4cccc(F)c4)c3c2)cnc1Cl,GI50,786-0 renal,0.31 µM
same,TGI,786-0 renal,5.52 µM
same,GI50,A549 NSCLC,0.695 µM
same,TGI,A549 NSCLC,6.8 µM
same,GI50,ACHN renal,0.57 µM
same,TGI,ACHN renal,> 45.1 µM
same,GI50,BT-549 breast,0.0736 µM
same,TGI,BT-549 breast,0.678 µM
same,GI50,CAKI-1 renal,0.163 µM
same,TGI,CAKI-1 renal,2.04 µM
same,GI50,CCRF-CEM leukemia,0.164 µM
same,TGI,CCRF-CEM leukemia,20.4 µM
same,GI50,COLO 205 colon,0.357 µM
same,TGI,COLO 205 colon,1.65 µM
same,GI50,DU-145 prostate,0.336 µM
same,TGI,DU-145 prostate,11.8 µM
same,GI50,EKVX NSCLC,0.381 µM
same,TGI,EKVX NSCLC,5.13 µM
same,GI50,HCC-2998 colon,0.367 µM
same,TGI,HCC-2998 colon,6.56 µM
same,GI50,HCT-116 colon,0.277 µM
same,TGI,HCT-116 colon,1.48 µM
same,GI50,HCT-15 colon,0.289 µM
same,TGI,HCT-15 colon,11.8 µM
same,GI50,HL-60(TB) leukemia,0.33 µM
same,TGI,HL-60(TB) leukemia,4.45 µM
same,GI50,HOP-62 NSCLC,0.22 µM
same,TGI,HOP-62 NSCLC,4.15 µM
same,GI50,HOP-92 NSCLC,0.0363 µM
same,TGI,HOP-92 NSCLC,0.459 µM
same,GI50,HS 578T breast,0.0513 µM
same,TGI,HS 578T breast,0.451 µM
same,GI50,HT29 colon,0.502 µM
same,TGI,HT29 colon,4.64 µM
same,GI50,IGROV1 ovarian,0.122 µM
same,TGI,IGROV1 ovarian,0.972 µM
same,GI50,K-562 leukemia,0.274 µM
same,TGI,K-562 leukemia,> 59.3 µM
same,GI50,KM12 colon,0.347 µM
same,TGI,KM12 colon,2.61 µM
same,GI50,LOX IMVI melanoma,0.2 µM
same,TGI,LOX IMVI melanoma,1.11 µM
same,GI50,M14 melanoma,0.254 µM
same,TGI,M14 melanoma,5.86 µM
same,GI50,MALME-3M melanoma,0.0793 µM
same,TGI,MALME-3M melanoma,0.559 µM
same,GI50,MCF7 breast,0.118 µM
same,TGI,MCF7 breast,9.85 µM
same,GI50,MDA-MB-231 breast,0.35 µM
same,TGI,MDA-MB-231 breast,4.96 µM
same,GI50,MDA-MB-435,0.258 µM
same,TGI,MDA-MB-435,9.5 µM
same,GI50,MOLT-4 leukemia,0.218 µM
same,TGI,MOLT-4 leukemia,1.98 µM
same,GI50,NCI-H226 lung,0.363 µM
same,TGI,NCI-H226 lung,22.8 µM
same,GI50,NCI-H23 lung,0.348 µM
same,TGI,NCI-H23 lung,13.6 µM
same,GI50,NCI-H460 lung,0.509 µM
same,TGI,NCI-H460 lung,11.4 µM
same,GI50,NCI-H522 lung,0.369 µM
same,TGI,NCI-H522 lung,7.86 µM
same,GI50,NCI/ADR-RES ovarian,1.99 µM
same,TGI,NCI/ADR-RES ovarian,40.3 µM
same,GI50,OVCAR-4 ovarian,0.309 µM
same,TGI,OVCAR-4 ovarian,> 27.7 µM
same,GI50,OVCAR-5 ovarian,0.473 µM
same,TGI,OVCAR-5 ovarian,12 µM
same,GI50,OVCAR-8 ovarian,0.366 µM
same,TGI,OVCAR-8 ovarian,16.4 µM
same,GI50,PC-3 prostate,0.284 µM
same,TGI,PC-3 prostate,5.71 µM
same,GI50,RPMI-8226 leukemia,0.287 µM
same,TGI,RPMI-8226 leukemia,2.16 µM
same,GI50,RXF 393 renal,0.11 µM
same,TGI,RXF 393 renal,0.784 µM
same,GI50,SF-268 CNS,0.196 µM
same,TGI,SF-268 CNS,3.61 µM
same,GI50,SF-295 CNS,0.237 µM
same,TGI,SF-295 CNS,2.43 µM
same,GI50,SF-539 CNS,0.195 µM
same,TGI,SF-539 CNS,1.85 µM
same,GI50,SK-MEL-2 melanoma,0.122 µM
same,TGI,SK-MEL-2 melanoma,0.374 µM
same,GI50,SK-MEL-28 melanoma,0.191 µM
same,TGI,SK-MEL-28 melanoma,4.69 µM
same,GI50,SK-MEL-5 melanoma,0.179 µM
same,TGI,SK-MEL-5 melanoma,0.403 µM
same,GI50,SK-OV-3 ovarian,0.263 µM
same,TGI,SK-OV-3 ovarian,1.76 µM
same,GI50,SN12C renal,0.278 µM
same,TGI,SN12C renal,32.4 µM
same,GI50,SNB-19 CNS,0.292 µM
same,TGI,SNB-19 CNS,11 µM
same,GI50,SNB-75 CNS,0.0343 µM
same,TGI,SNB-75 CNS,0.448 µM
same,GI50,SR leukemia,0.112 µM
same,TGI,SR leukemia,2.24 µM
same,GI50,SW-620 colon,0.344 µM
same,TGI,SW-620 colon,10.3 µM
same,GI50,T-47D breast,0.0635 µM
same,TGI,T-47D breast,1.46 µM
same,GI50,TK-10 renal,0.141 µM
same,TGI,TK-10 renal,1.22 µM
same,GI50,U251 CNS,0.197 µM
same,TGI,U251 CNS,2.68 µM
same,GI50,UACC-257 melanoma,0.335 µM
same,TGI,UACC-257 melanoma,7.14 µM
same,GI50,UACC-62 melanoma,0.121 µM
same,TGI,UACC-62 melanoma,1.19 µM
same,GI50,UO-31 renal,0.162 µM
same,TGI,UO-31 renal,> 21.5 µM

# From PubChem BioAssay (NCI)
